Data published in US20050020542A1, “Method of modulating sodium ion absorption in epithelial cells” (priority 2001, published 2005).

Assays:
human CF nasal epithelia = experiment: Blue Dextran volume transport assay (fluid absorption); format: cell-based; settings: for inhibition of fluid absorption, dose response: Blue Dextran Assay, 18 hrs apical exposure
Source text: In normal human airway epithelia, Na^+ and Cl^− currents (CFTR and Ca^2+-activated Cl^− currents) contribute to airway surface liquid (ASL) fluid volume regulation depending on signaling equilibria. In contrast, in human CF airway epithelia, Na^+ currents through ENaC dominate basal ASL volume regulation accompanied by a relatively minor contribution through Ca^2+-activated Cl^− currents. The combination of enhanced ENaC currents and transient Ca^2+-activated Cl^− currents in CF result in an inadequate hydration of the ASL and reduction of mucociliary clearance. Since INO-E2 reduces Na^+ transport through ENaC, we hypothesized that INO-E2 would have a functional effect, similar to amiloride, and inhibit fluid absorption. To test this hypothesis, we exposed well differentiated monolayer cultures of CF nasal epithelia to an apically applied buffer containing INO-E2 and a known concentration of the non-permeable molecule Blue Dextran (BD). The resulting reduction in the ability of these monolayers to concentrate BD was taken as a functional indicator of INO-E2's involvement in the inhibition of ENaC.
HEPES Modified Ringer's Buffer (HMRB) was used for these assays. HMRB was sterilized by positive pressure filtration through a 0.2 um syringe tip filter (Gelman acrodisc). The BD stock solution was aseptically prepared with sterile buffer (2 mg BD/ml buffer). Compounds to be tested were solubilized in sterile HMRB containing 1 μM BD (final concentration of vehicle is 0.1% (1:1, DMSO+DMSO containing 5% pluronic-F127). […] A standard concentration curve was obtained by determining the optical densities of a serial dilution of 10 μM Blue Dextran in HMRB placed in a Falcon 3027 96-well plate. The optical density of BD in the solution was obtained by analysis at 660 nm in a Packard Spectracount. Standards and samples were analyzed on the same plate. 50 μl volumes were used for all samples and standards. The [BD] of the samples was determined by extrapolation from the standard curve using the Packard I-Smart software. The increase in [BD] from the starting value of 1 μM was taken to be an indication of the magnitude of volume absorption occurring across the monolayer. The rate of absorption was calculated by dividing the change in volume by the duration of the experiment. This value was normalized to a surface area of 1 cm^2, to give μl·cm^2−1·hr^−1. To address evaporative loss, which would appear in the data as artificially high absorptive rates, dummy membranes were constructed by attaching a thin Sylgard sheet to snapwells/transwells with silicon sealant. These dummy membranes were used in parallel with the epithelial monolayers to assess evaporative loss for each experiment.

[1] = system: calcium-activated Cl- channel; experiment: Perforated patch whole cell recording of Cl- current; format: cell-based, human
Method: In FIGS. 4A and 4B, the response to 10 μM INO-E2 is contrasted with the response to ATP.

For `CCCC(=O)OC1C(OCCCc2ccccc2)C(OP(=O)(OCOC(=O)CC)OCOC(=O)CC)C(OP(=O)(OCOC(=O)CC)OCOC(=O)CC)C(OP(=O)(OCOC(=O)CC)OCOC(=O)CC)C1OP(=O)(OCOC(=O)CC)OCOC(=O)CC` (stereo not shown) [INO-4997, 2-O-butyryl-1-O-(3-phenylpropyl)-myo-inositol 3,4,5,6-tetrakis-phosphate octakis (propionoxymethyl) ester], the “activity on fluid absorption as share of activity of 100 μM amiloride” value (human CF nasal epithelia; 1 μM) was 50% and the “inhibition of fluid absorption, dose response” value (from here on “inhibition … dose response”) (human CF nasal epithelia) was “dose dependent inhibition of fluid absorption”.
With `CCCC(=O)OC1C(OP(=O)(OCOC(=O)CC)OCOC(=O)CC)C(OC(=O)CCC)C(OP(=O)(OCOC(=O)CC)OCOC(=O)CC)C(OP(=O)(OCOC(=O)CC)OCOC(=O)CC)C1OP(=O)(OCOC(=O)CC)OCOC(=O)CC` (stereo not shown) [INO-230, 2,6-Di-O-butyryl-myo-inositol 1,3,4,5-tetrakisphosphate octakis(propionoxymethyl) ester] the “inhibition of fluid absorption 42 hrs after exposure” value (human CF nasal epithelia; 10 μM, 2 hr exposure, measured 42 hrs after) was “significantly inhibits”, the “change of potency on fluid absorption with repeat administration” value (human CF nasal epithelia; 2 hours each day for 8 days at 0.1 μM or 1 μM, n=6) was “enhancement of compound potency” and the “inhibition … dose response” value (human CF nasal epithelia) was “dose dependent inhibition of fluid absorption”. For the same compound, the “relative potency on fluid absorption after pulsed exposure” value (human CF nasal epithelia; INO-230 vs INO-E2) was “more potent than INO-E2”, the “duration of effect on fluid secretion following a brief (pulsed) exposure” value (human CF nasal epithelia; pulsed exposure, FIG. 17) was “prolonged effects” and the “potency of inhibition of fluid absorption on repeated exposure” value (human CF nasal epithelia; repeated apical low doses over 96-192 hours, FIG. 17) was “nanomolar range”.
`CCCC(=O)OC1C(OC(=O)CCC)C(OP(=O)(OCOC(=O)CC)OCOC(=O)CC)C(OP(=O)(OCOC(=O)CC)OCOC(=O)CC)C(OC(=O)CCC)C1OP(=O)(OCOC(=O)CC)OCOC(=O)CC` (stereo not shown) [INO-4982, 2,3,5-tri-O-butyryl-myo-inositol 1,4,6-trisphosphate hexakis (propionoxymethyl) ester] was tested, and the “inhibition … dose response” value (human CF nasal epithelia) was “dose dependent inhibition of fluid absorption”.
In the case of `CCCC(=O)OC1C(OC(=O)CCC)C(OP(=O)(OCOC(=O)CC)OCOC(=O)CC)C(OP(=O)(OCOC(=O)CC)OCOC(=O)CC)C(OC(=O)CCC)C1OP(=O)(OCOC(=O)CC)OCOC(=O)CC` (stereo not shown) [INO-4981, 1,2,5-tri-O-butyryl-myo-inositol 3,4,6-trisphosphate hexakis (propionoxymethyl) ester], the “inhibition … dose response” value (human CF nasal epithelia) is reported as “dose dependent inhibition of fluid absorption”.
`CCCCCCCCOC1C(OC(=O)CCC)C(OP(=O)(OCOC(=O)CC)OCOC(=O)CC)C(OP(=O)(OCOC(=O)CC)OCOC(=O)CC)C(OP(=O)(OCOC(=O)CC)OCOC(=O)CC)C1OP(=O)(OCOC(=O)CC)OCOC(=O)CC` (stereo not shown) [INO-4987, 2-O-butyryl-3-O-octyl-myo-inositol 1,4,5,6-tetrakisphosphate octakis (propionoxymethyl) ester] was tested, and the “inhibition … dose response” value (human CF nasal epithelia) was “dose dependent inhibition of fluid absorption”.
With `N=C(N)NC(=O)c1nc(Cl)c(N)nc1N` [amiloride, reference compound] the “inhibition … dose response” value (human CF nasal epithelia) was “inhibited fluid absorption measured by the Blue Dextran assay in a dose dependent fashion”.
For `CCC(=O)OCOP(=O)(OCOC(=O)CC)OC1C2OC3(CC4CCC3(C)C4(C)C)OC2C(OP(=O)(OCOC(=O)CC)OCOC(=O)CC)C(OP(=O)(OCOC(=O)CC)OCOC(=O)CC)C1OP(=O)(OCOC(=O)CC)OCOC(=O)CC` (stereo not shown) [INO-4984, 2,3-camphanylidene-myo-inositol 1,4,5,6-tetrakisphosphate octakis (propionoxymethyl) ester], the “potency on fluid absorption relative to 100 μM amiloride” value (human CF nasal epithelia; 100 μM) was “more potent than 100 μM amiloride” and the “inhibition … dose response” value (human CF nasal epithelia) was “dose dependent inhibition of fluid absorption”.
For `Nc1ncnc2c1ncn2[C@@H]1O[C@H](COP(=O)(O)OP(=O)(O)OP(=O)(O)O)[C@@H](O)[C@H]1O` [ATP, adenosine triphosphate, reference compound], the “further increase in whole cell chloride current after INO-E2” value ([1]; ATP contrasted with 10 μM INO-E2) was “no further increase”.
`O=C(O)c1cccnc1Nc1cccc(C(F)(F)F)c1` [niflumic acid, reference compound] was tested, and the “block of INO-E2 mediated whole cell current” value ([1]; 100 μM) was “completely blocked”.
`CCC(=O)OCOP(=O)(OCOC(=O)CC)OC1C2OC3(CC4CCC3(C)C4(C)C)OC2C(OP(=O)(OCOC(=O)CC)OCOC(=O)CC)C(OP(=O)(OCOC(=O)CC)OCOC(=O)CC)C1OP(=O)(OCOC(=O)CC)OCOC(=O)CC` (stereo not shown) [INO-4996, 1,2-camphanylidene-myo-inositol 3,4,5,6-tetrakisphosphate octakis (propionoxymethyl) ester] was tested, and the “inhibition … dose response” value (human CF nasal epithelia) was “dose dependent inhibition of fluid absorption”.
In the case of `CCCC(=O)OC1C(OP(=O)(OCOC(=O)CC)OCOC(=O)CC)C(OC(=O)CCC)C(OP(=O)(OCOC(=O)CC)OCOC(=O)CC)C(OC(=O)CCC)C1OP(=O)(OCOC(=O)CC)OCOC(=O)CC` (stereo not shown) [INO-4992, 2,4,6-tri-O-butyryl-myo-inositol 1,3,5-trisphosphate hexakis (propionoxymethyl) ester], the “potency on fluid absorption relative to 100 μM amiloride” value (human CF nasal epithelia; 5 uM) is reported as “nearly as potent as 100 μM amiloride” and the “inhibition … dose response” value (human CF nasal epithelia) is reported as “dose dependent inhibition of fluid absorption”.
